Measurements as given in ChEMBL document CHEMBL5338775, “Discovery of a Novel Class of PROTACs as Potent and Selective Estrogen Receptor α Degraders to Overcome Endocrine-Resistant Breast Cancer In Vitro and In Vivo” (J Med Chem, 2023).
The source made the active and inactive calls. The calls are words filed in the database; no cut-off is given here. Residues, ends and D or L forms follow the SMILES beside them. *: point of attachment. Cbz = O=C(OCc1ccccc1)*

What was measured:
MCF7 [1] = test: Antitumor activity against human tamoxifen-sensitive MCF7 cells xenografted in BALB/c nude mouse assessed as reduction in cell proliferation at 5 micromol/kg, ip administered once every 2 days by ki67 staining based analysis; assay type: functional, organism-based; details: dose 5.0 µmol/kg
MCF7 [2] = test: Antitumor activity against human tamoxifen-sensitive MCF7 cells xenografted in BALB/c nude mouse assessed as inhibition of tumor growth at 5 micromol/kg, ip administered once every 2 days and measured every 2 days; assay type: functional, organism-based; details: dose 5.0 µmol/kg
MCF7 [3] = test: Antitumor activity against human tamoxifen-sensitive MCF7 cells xenografted in BALB/c nude mouse assessed as increase in tumor necrosis area at 5 micromol/kg, ip administered once every 2 days by […] staining based analysis; assay type: functional, organism-based; details: dose 5.0 µmol/kg
Mus musculus [4] = test: In vivo protac activity at VHL/ERalpha in BALB/c nude mouse xenografted with human tamoxifen-sensitive MCF7 cells assessed as reduction in ERalpha protein levels in tumor at 5 micromol/kg, ip administered once every 2 days by Western blot analysis; assay type: functional, organism-based; details: dose 5.0 µmol/kg
Estrogen receptor beta [5] = biological target: T1, Estrogen receptor beta (Homo sapiens, UniProt Q92731); test: Induction of ERbeta degradation in human NCI-H1975 cells at 10 uM incubated for 12 hrs by Western blot analysis; assay type: cell-based
T1 sequence (Q92731 whole entry): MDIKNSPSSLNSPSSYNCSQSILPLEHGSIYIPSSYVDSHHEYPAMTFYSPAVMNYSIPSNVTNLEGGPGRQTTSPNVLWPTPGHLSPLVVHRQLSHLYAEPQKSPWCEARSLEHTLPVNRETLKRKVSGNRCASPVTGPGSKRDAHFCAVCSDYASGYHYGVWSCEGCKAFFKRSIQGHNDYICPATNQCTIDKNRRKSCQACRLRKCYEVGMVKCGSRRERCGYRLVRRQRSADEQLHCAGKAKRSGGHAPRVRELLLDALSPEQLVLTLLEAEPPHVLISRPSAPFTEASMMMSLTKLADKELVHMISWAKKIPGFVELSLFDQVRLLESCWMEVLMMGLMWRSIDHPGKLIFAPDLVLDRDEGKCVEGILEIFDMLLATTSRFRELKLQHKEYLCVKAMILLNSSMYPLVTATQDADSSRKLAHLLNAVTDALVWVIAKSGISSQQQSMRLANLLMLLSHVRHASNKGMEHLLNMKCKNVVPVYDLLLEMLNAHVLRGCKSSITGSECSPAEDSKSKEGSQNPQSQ

[6] = biological target: T2, Estrogen receptor (Homo sapiens) (UniProt P03372); test: Induction of ERalpha degradation in ER-positive human MCF7 cells at 10 uM incubated for 12 hrs by Western blot analysis; assay type: cell-based
T2 sequence (whole entry): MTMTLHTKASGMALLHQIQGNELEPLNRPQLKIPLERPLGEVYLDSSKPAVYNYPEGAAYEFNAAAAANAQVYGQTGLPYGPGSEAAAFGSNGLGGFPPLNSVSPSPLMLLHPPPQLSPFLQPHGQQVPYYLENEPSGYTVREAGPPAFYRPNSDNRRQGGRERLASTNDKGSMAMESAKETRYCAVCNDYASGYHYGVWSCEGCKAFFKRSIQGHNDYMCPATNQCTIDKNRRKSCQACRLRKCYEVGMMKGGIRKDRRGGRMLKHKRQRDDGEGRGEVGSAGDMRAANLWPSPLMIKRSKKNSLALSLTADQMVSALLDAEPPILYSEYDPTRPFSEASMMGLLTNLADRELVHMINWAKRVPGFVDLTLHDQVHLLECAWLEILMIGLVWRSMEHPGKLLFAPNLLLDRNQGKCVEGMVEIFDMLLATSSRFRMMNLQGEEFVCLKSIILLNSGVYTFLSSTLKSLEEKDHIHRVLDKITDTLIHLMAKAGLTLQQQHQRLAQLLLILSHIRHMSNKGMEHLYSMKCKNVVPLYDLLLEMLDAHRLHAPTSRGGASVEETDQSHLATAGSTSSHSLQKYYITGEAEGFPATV

[7] = biological target: T2, Estrogen receptor (Homo sapiens); test: Induction of ERalpha degradation in ER-positive human MCF7 cells at 1 uM incubated for 12 hrs in presence of N-ethyl-5,6-bis(4-hydroxyphenyl)-N-(4-methoxyphenyl)-7-oxabicyclo[2.2.1]hept-5-ene-2-sulfonamide by Western blot analysis; assay type: cell-based
[8] = biological target: T2, Estrogen receptor (Homo sapiens); test: Induction of ERalpha degradation in ER-positive human MCF7 cells at 1 uM incubated for 12 hrs by Western blot analysis; assay type: cell-based
[9] = biological target: T2, Estrogen receptor (Homo sapiens); test: Induction of ERalpha degradation in ER-positive human MCF7 cells at 1 to 10 uM incubated for 12 hrs by Western blot analysis; assay type: cell-based; details: dose 1-10 µM
[10] = Selectivity ratio of relative binding affinity for ERalpha (unknown origin) to relative binding affinity to ERbeta (unknown origin)
[11] = biological target: T2, Estrogen receptor (Homo sapiens); test: Induction of ERalpha degradation in ER-positive human MCF7 cells at 1 uM incubated for 12 hrs in presence of (2S,4R)-1-[(2S)-2-amino-3,3-dimethylbutanoyl]-4-hydroxy-N-[(1S)-1-[4-(4-methyl-1,3-thiazol-5-yl)phenyl]ethyl]pyrrolidine-2-carboxamide by Western blot analysis; assay type: cell-based
[12] = Selectivity index, ratio of Ki for ERalpha (unknown origin) to Ki for ERbeta (unknown origin)
Estrogen receptor = biological target: T3, Estrogen receptor (Homo sapiens, UniProt P03372)
T3 sequence (P03372 whole entry): T2 sequence (whole entry)

Estrogen receptor beta [13] = biological target: T1, Estrogen receptor beta; test: Binding affinity to ERbeta (unknown origin) assessed as relative binding affinity incubated for 2 hrs by fluorescence polarization assay relative to estradiol
Estrogen receptor beta [14] = biological target: T1, Estrogen receptor beta
Estrogen receptor beta [15] = biological target: T1, Estrogen receptor beta; test: Induction of ERbeta degradation in human NCI-H1975 cells at 1 to 10 uM incubated for 12 hrs by Western blot analysis; assay type: cell-based; details: dose 1-10 µM
[16] = biological target: T2, Estrogen receptor (Homo sapiens); test: Induction of ERalpha degradation in ER-positive human MCF7 cells at 5 uM incubated for 12 hrs by Western blot analysis; assay type: cell-based
MCF7 [17] = test: Induction of apoptosis in human MCF7 cells at 1 to 10 uM incubated for 24 hrs by Annexin V-FITC/PI staining based analysis; assay type: functional, cell-based; details: dose 1-10 µM
Mus musculus [18] = test: In vivo protac activity at VHL/ERalpha in BALB/c nude mouse xenografted with human ER-positive tamoxifen-resistant LCC2 cells assessed as reduction in ERalpha protein levels in tumor at 5 micromol/kg, ip administered once every 2 days by Western blot analysis; assay type: functional, organism-based; details: dose 5.0 µmol/kg
[19] = biological target: T4, von Hippel-Lindau disease tumor suppressor/Estrogen receptor (Homo sapiens) (UniProt P03372+P40337); test: PROTAC activity at VHL/ERalpha in ER-positive human tamoxifen-resistant LCC2 cells assessed as induction of ERalpha degradation at 2 uM incubated for 12 hrs by Western blot analysis; assay type: cell-based; details: tamoxifen-resistant LCC2 cell
T4 sequence (P40337 whole entry, looked up, one chain of several): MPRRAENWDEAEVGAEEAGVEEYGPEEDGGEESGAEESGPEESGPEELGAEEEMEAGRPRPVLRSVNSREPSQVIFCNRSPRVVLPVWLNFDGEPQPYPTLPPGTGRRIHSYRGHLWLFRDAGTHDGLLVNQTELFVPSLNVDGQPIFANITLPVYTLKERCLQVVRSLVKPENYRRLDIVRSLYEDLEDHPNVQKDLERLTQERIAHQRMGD

cells = details: Homo sapiens, Tamoxifen-resistant LCC2 cell, 72 h
T47D [20] = test: cells; details: Homo sapiens, 72 h
MCF7 [21] = test: cells; details: Homo sapiens, MCF7, 72 h
[22] = tested on: tamoxifen-resistant LCC2 cell; test: Antitumor activity against human ER-positive tamoxifen-resistant LCC2 cells xenografted in BALB/c nude mouse assessed as reduction in tumor growth at 5 micromol/kg, ip administered once every 2 days and measured every 2 days; assay type: functional, organism-based; details: dose 5.0 µmol/kg
MCF7 [23] = test: Induction of cell cycle arrest in human MCF7 cells at 1 to 10 uM incubated for 24 hrs; assay type: functional, cell-based; details: dose 1-10 µM
[24] = biological target: T4, von Hippel-Lindau disease tumor suppressor/Estrogen receptor (Homo sapiens); test: PROTAC activity at VHL/wild type ERalpha in ER-positive human MCF7 cells assessed as induction of ERalpha degradation at 1 uM incubated for 12 hrs by Western blot analysis; assay type: cell-based
T47D [25] = test: Inhibition of nascent GREB1 RNA synthesis in human T47D cells incubated for 6 hrs by 4-thiouridine incorporation assay; assay type: functional, cell-based
[26] = biological target: von Hippel-Lindau disease tumor suppressor/Estrogen receptor beta (Homo sapiens) (UniProt Q92731+P40337); test: PROTAC activity at VHL/ERbeta in human NCI-H1975 cells assessed as induction of ERbeta degradation at 1 to 10 uM incubated for 12 hrs by Western blot analysis; assay type: cell-based; details: dose 1-10 µM
von Hippel-Lindau disease tumor suppressor/Estrogen receptor beta (Homo sapiens), sequence (P40337 whole entry, looked up): as the sequence (P40337 whole entry, looked up, one chain of several) above
von Hippel-Lindau disease tumor suppressor/Estrogen receptor beta (Homo sapiens), sequence (Q92731 whole entry, looked up): as the sequence (Q92731 whole entry) above

MDA-MB-231 = test: cells; details: Homo sapiens, MDA-MB-231, 72 h
T47D [27] = test: Inhibition of gene transcription in human T47D cells assessed as reduction in H3K27ac levels in IGFBP4 promoter region by ChIP-seq analysis; assay type: functional, cell-based
[28] = biological target: T2, Estrogen receptor (Homo sapiens); test: Inhibition of ERalpha binding to DNA in human T47D cells assessed as reduction in protein occupancy incubated for 6 hrs by ChIP-seq analysis; assay type: cell-based
T47D [29] = test: Inhibition of gene transcription in human T47D cells assessed as reduction in Pol II occupancy at GREB1 promoter region by ChIP-seq analysis; assay type: functional, cell-based
T47D [30] = test: cells; details: Homo sapiens, 72 h; remark: listed apart in the source
[31] = biological target: T4, von Hippel-Lindau disease tumor suppressor/Estrogen receptor (Homo sapiens); test: PROTAC activity at VHL/wild type ERalpha in ER-positive human T47D cells assessed as induction of ERalpha degradation at 2 uM incubated for 12 hrs by Western blot analysis; assay type: cell-based
T47D [32] = test: Inhibition of gene transcription in human T47D cells assessed as reduction in Pol II occupancy at IGFBP4 promoter region by ChIP-seq analysis; assay type: functional, cell-based
T47D [33] = test: Inhibition of nascent IGFBP4 RNA synthesis in human T47D cells incubated for 6 hrs by 4-thiouridine incorporation assay; assay type: functional, cell-based
[34] = biological target: T4, von Hippel-Lindau disease tumor suppressor/Estrogen receptor (Homo sapiens); test: PROTAC activity at VHL/ERalpha in ER-positive human MCF7 cells assessed as induction of ERalpha degradation at 0.01 to 10 uM incubated for 12 hrs by Western blot analysis; assay type: cell-based; details: dose 0.01-10 µM
T47D [35] = test: Inhibition of gene transcription in human T47D cells assessed as reduction in H3K27ac levels in GREB1 promoter region by ChIP-seq analysis; assay type: functional, cell-based
in vitro = details: human, MCF-10A cells
T47D [36] = test: cells; details: Homo sapiens, 72 h; remark: listed apart in the source

CC/C(=C(\c1ccccc1)c1ccc(OCCN(C)C)cc1)c1ccccc1
Activity (MCF7 [1]): Active | inhibition (MCF7 [2]): Active | Activity (MCF7 [3]): Active | Activity (Mus musculus [4]): inactive

COc1ccc(N(CC(F)(F)F)S(=O)(=O)C2CC3OC2C(c2ccc(O)cc2)=C3c2ccc(O)cc2)cc1 (stereo not drawn)
Activity (Estrogen receptor beta [5]): Active | Activity [6]: Active

Cc1ncsc1-c1ccc([C@H](C)NC(=O)[C@@H]2C[C@@H](O)CN2C(=O)[C@@H](N)C(C)(C)C)cc1
Activity [7]: inactive | Activity [8]: inactive

CCN(c1ccc(OC)cc1)S(=O)(=O)C1CC2OC1C(c1ccc(O)cc1)=C2c1ccc(O)cc1 (stereo not drawn)
Activity [9]: inactive | Selectivity ratio [10]: 3.39 | Activity [8]: inactive | Activity [11]: inactive | Ratio Ki [12]: 13.1 | Ki (Estrogen receptor): 190 nM | RBA (Estrogen receptor beta [13]): 0.31% | Ki (Estrogen receptor beta [14]): 2540 nM | Activity (Estrogen receptor beta [15]): inactive

CC(C)C[C@@H](C=O)NC(=O)[C@H](CC(C)C)NC(=O)[C@H](CC(C)C)NC(=O)OCc1ccccc1 (Cbz-Leu-Leu-Leu-aldehyde)
Activity [16]: inactive

Cc1ncsc1-c1ccc([C@H](C)NC(=O)[C@@H]2C[C@@H](O)CN2C(=O)[C@@H](NC(=O)CCCCCOc2ccc(N(CC(F)(F)F)S(=O)(=O)C3CC4OC3C(c3ccc(O)cc3)=C4c3ccc(O)cc3)cc2)C(C)(C)C)cc1 (stereo partly drawn)
Activity (MCF7 [17]): Active | Activity (Mus musculus [18]): Active | Activity [19]: Active | IC50 (cells): 4170 nM | Selectivity ratio [10]: 1.33 | IC50 (T47D [20]): 1260 nM | IC50 (MCF7 [21]): 50 nM | Activity [22]: Active | Activity (MCF7 [23]): Active | Activity [24]: Active | inhibition (T47D [25]): Active | Activity [26]: inactive | IC50 (MDA-MB-231): > 100000 nM | Ratio Ki [12]: 5.16 | inhibition (T47D [27]): Active | Ki (Estrogen receptor): 5080 nM | RBA (Estrogen receptor beta [13]): 0.03% | inhibition [28]: Active | inhibition (T47D [29]): Active | IC50 (T47D [30]): 1510 nM | Ki (Estrogen receptor beta [14]): 26200 nM | Activity [31]: Active | inhibition (T47D [32]): Active | inhibition (T47D [33]): Active | Activity [34]: Active | inhibition (T47D [35]): Active | IC50 at 72 h (in vitro): 7690 nM | IC50 (T47D [36]): 1350 nM

C[C@]12CC[C@@H]3c4ccc(O)cc4C[C@@H](CCCCCCCCC[S+]([O-])CCCC(F)(F)C(F)(F)F)[C@H]3[C@@H]1CC[C@@H]2O (stereo partly drawn) [FULVESTRANT]
Activity (MCF7 [1]): Active | IC50 (cells): 11800 nM | IC50 (T47D [20]): 3920 nM | IC50 (MCF7 [21]): 330 nM | inhibition (T47D [25]): Active | inhibition (MCF7 [2]): Active | IC50 (MDA-MB-231): > 100000 nM | inhibition (T47D [27]): Active | inhibition [28]: Active | inhibition (T47D [29]): Active | IC50 (T47D [30]): 2210 nM | inhibition (T47D [32]): Active | inhibition (T47D [33]): Active | Activity (MCF7 [3]): Active | Activity (Mus musculus [4]): Active | inhibition (T47D [35]): Active | IC50 (T47D [36]): 1760 nM
